The values below come from patent US7544709B2, “Derivatives of andrimide and moiramide B having antibacterial properties” (Bayer Healthcare AG, priority 2001, dated 2009).

Assay [1] relates to Staphylococcus aureus 133. Briefly: Determination of minimum inhibitory concentration (MIC), liquid dilution test. The assay is classed as cell-based. The procedure:
(§1) Determination of Minimum Inhibitory Concentration (MIC):
(§2) The MIC is determined in the liquid dilution test. Overnight cultures of the test organisms are diluted to a cell count of 10^5 organisms per ml in Isosensitest medium (manufacturer: Difco) and are incubated with dilutions of the test substances (1:2 dilution states). Exceptions are the tests with S. pneumoniae G9A, which are conducted in BHI broth (Difco) plus 20% bovine serum, and with H. influenzae, which are conducted in BHI broth (Difco) plus 20% bovine serum, 10 μg/ml hemin and 1% Isovitale (Becton Dickinson).
(§3) The cultures are incubated at 37° C. for 18-24 hours; S. pneumoniae and H. influenzae in the presence of 8-10% CO2.
(§4) The lowest concentration of each substance at which there was no longer any visible bacterial growth is defined as the MIC. The MICs in μmol/l of some compounds according to the invention against a series of test organisms are listed by way of example in the table below.

Assay [2] relates to Haemophilus influenzae Spain 7. The description is as above. It counts as cell-based. The conditions noted are these: SPAIN7, BHI broth plus 20% bovine serum, 10 μg/ml hemin and 1% Isovitale, 37° C., 18-24 hours, 8-10% CO2. The procedure:
as §1, §2, §3, §4

The conditions of assay [3]: described in the literature; cited from earlier work.
The mark [4] stands for this setting: Staphylococcus aureus, 133, liquid dilution test, Isosensitest medium, 10^5 organisms per ml, 37° C., 18-24 hours, lowest concentration with no visible growth, read-out: MIC Staphylococcus aureus 133.

≈ marks a conversion by molar mass, not a printed value. Where two headings read alike, the source gives them in different places.

As to `CC(C)[C@H](NC(=O)C[C@H](NC(=O)NCc1ccccc1)c1ccccc1)C(=O)[C@@H]1C(=O)NC(=O)[C@H]1C` [Example 2, (S)-3-(3-Benzylureido)-N-{(S)-2-methyl-1-[1-((3R,4S)-4-methyl-2,5-dioxopyrrolidin-3-yl)-methanoyl]propyl}-3-phenylpropionamide], the MIC in assay [1] (setting [4]) was 3.9 µM (≈ 1.92 µg/mL); in assay [2] it was 62.5 µM.
`CC(C)[C@H](NC(=O)C[C@H](NC(=O)Nc1ccccc1)c1ccccc1)C(=O)[C@@H]1C(=O)NC(=O)[C@H]1C` [Example 5, (S)-N-{(S)-2-Methyl-1-[1-((3R,4S)-4-methyl-2,5-dioxopyrrolidin-3-yl)-methanoyl]-propyl}-3-phenyl-3-(3-phenylureido)propionamide]: the MIC in assay [1] (setting [4]) was found to be 62.5 µM (≈ 29.9 µg/mL).
As for `COc1ccc(NC(=O)N[C@@H](CC(=O)N[C@H](C(=O)[C@@H]2C(=O)NC(=O)[C@H]2C)C(C)C)c2ccccc2)cc1` [Example 6, (S)-3-[3-(4-Methoxyphenyl)ureido]-N-{(S)-2-methyl-1-[1-((3R,4S)-4-methyl-2,5-dioxopyrrolidin-3-yl)methanoyl]propyl}-3-phenylpropionamide], the results for the MIC in assay [1] (setting [4]) and in assay [2] were 62.5 µM (≈ 31.8 µg/mL) and 62.5 µM, respectively.
As to `CC(C)[C@H](NC(=O)C[C@H](NC(=O)N(C)c1ccccc1)c1ccccc1)C(=O)[C@@H]1C(=O)NC(=O)[C@H]1C` [Example 7, (S)-N-{(S)-2-Methyl-1-[1-((3R,4S)-4-methyl-2,5-dioxopyrrolidin-3-yl)methanoyl]-propyl}-3-(3-methyl-3-phenylureido)-3-phenylpropionamide], the results for the MIC in assay [1] (setting [4]) and in assay [2] were 15.6 µM (≈ 7.68 µg/mL) and 31.3 µM, respectively.
Take `CC(C)[C@H](NC(=O)CC(NC(=O)Nc1cccc2ccccc12)c1ccccc1)C(=O)[C@@H]1C(=O)NC(=O)[C@H]1C` (stereo partly drawn) [Example 9, N-((1s)-2-Methyl-1-{[(3R,4S)-4-methyl-2,5-dioxo-3-pyrrolidinyl]carbonyl}propyl)-3-{[(1-naphthylamino)carbonyl]amino}-3-phenylpropionamide]: the MIC worked out at 7.8 µM (≈ 4.12 µg/mL) in assay [1] (setting [4]) and 62.5 µM in assay [2].
The corresponding values for `CC(C)[C@H](NC(=O)CC(NC(=O)Nc1ccc(Cl)c(C(F)(F)F)c1)c1ccccc1)C(=O)[C@@H]1C(=O)NC(=O)[C@H]1C` (stereo partly shown) [Example 10] are 7.8 µM (≈ 4.53 µg/mL) and 125 µM.
For `C[C@@H]1C(=O)NC(=O)[C@H]1C(=O)C(NC(=O)C[C@H](NC(=O)OC(C)(C)C)c1ccccc1)C1CCCC1` (stereo partly shown) [Example 33], the MIC in assay [1] (setting [4]) came out at 31.3 µM (≈ 15.2 µg/mL); in assay [2], 125 µM.
For `CC(C)[C@H](NC(=O)CC(NC(=O)Oc1ccc(-c2ccccc2)cc1)c1ccccc1)C(=O)[C@@H]1C(=O)NC(=O)[C@H]1C` (stereo partly shown) [Example 35], the MIC in assay [1] (Staphylococcus aureus, 133, read-out: MIC Staphylococcus aureus 133) came to 0.98 µM (≈ 0.545 µg/mL).
For the compound `CC(C)[C@H](NC(=O)C[C@H](NS(=O)(=O)/C=C/c1ccccc1)c1ccccc1)C(=O)[C@@H]1C(=O)NC(=O)[C@H]1C` [Example 47, (3S)-N-((1S)-2-Methyl-1-{[(3R,4S)-4-methyl-2,5-dioxo-3-pyrrolidinyl]carbonyl}-propyl)-3-phenyl-3-({[(E)-2-phenylethenyl]sulfonyl}amino)propionamide], the results for the MIC in assay [1] (setting [4]) and in assay [2] were 7.8 µM (≈ 4.1 µg/mL) and 125 µM, respectively.
In the case of `C/C=C/C=C/C=C/C(=O)N[C@@H](CC(=O)N[C@H](C(=O)[C@@H]1C(=O)NC(=O)[C@H]1C)C(C)C)c1ccccc1` [andrimid], the antibacterial activity result in assay [3] was “having antibacterial activity”.
Take `C/C=C/C=C/C(=O)N[C@@H](CC(=O)N[C@H](C(=O)[C@@H]1C(=O)NC(=O)[C@H]1C)C(C)C)c1ccccc1` [moiramide B]: the antibacterial activity entry in assay [3] was “having antibacterial activity”.
With `C/C=C/C=C/C=C/C(=O)N[C@@H](CC(=O)N[C@H](C(=O)[C@@]1(O)C(=O)NC(=O)[C@H]1C)C(C)C)c1ccccc1` [moiramide C], the antibacterial activity entry in assay [3] was “inactive”.
